In patent US4946828A, “Novel insulin peptides” (Novo Nordisk A/S, priority 1985, dated 1990):

Tests used:
mouse = experiment: Mouse blood sugar depletion test (British Pharmacopoeia 1980, A 141-A 142); type: in vivo; settings: solutions without additions of zinc (zinc content 8-10 μg/ml from crystals); estimated potencies
Method: The potencies of insulin compounds were accessed in the mouse blood sugar depletion test (British Pharmacopoeia 1980, A 141-A 142). In order to minimize the problem of estimating potency of insulins having a timing different from the standard, insulin solutions for potency determinations were made up without additions of zinc. Solutions were made up to contain […] based on the absorbance at 276 nm. The zinc content of solutions were 8-10 μg/ml, arising from the crystalline derivatives.

fasted rabbits = experiment: Test for prolongation of insulin effect (hypoglycemic effect, British Pharmacopoeia 1980, A 142); type: in vivo, rabbit; settings: for Glucose in percent of initial, 1 h / Glucose in percent of initial, 2 h / Glucose in percent of initial, 4 h / Glucose in percent of initial, 6 h: pH 4.5, 14.3 nmole per rabbit s.c.; for Prolongation of action: about 240 nmole/ml
Method: Sterile injectable solutions of the compounds of formula I for testing of the degree of prolonged action were made using 1.6% (w/v) glycerol as the isotonicum, using 0.3% (w/v) m-cresol as the preservative, […] The pH values of the solutions were adjusted sufficiently off the isoelectric point of the compounds of formula I to keep the solutions clear upon storage at 4° C. The solutions contained 240 nmole/ml of the compounds of formula I. The concentration of 240 nmole/ml was established by measurement of the absorbance at 276 nm of a more concentrated stock solution devoid of m-cresol, using the molar extinction coefficient for porcine insulin of 6100 for these derivatives (see Handbuch der Inneren Medizin, Vol. 7/Part 2A, Editor: Oberdisse, 1975, 113). […] 1 U corresponds to 5.95 nmole.
Injectable solutions containing 240 nmole/ml of the compounds of formula I stated in Table II and having the pH values and content of zinc stated therein were made.
The prolongation of the hypoglycemic effect produced by the injectable solutions of insulin was tested according to British Pharmacopoeia 1980, A 142, in fasted rabbits. Each test solution was administered subcutaneously in a dosis of 14.3 nmole per rabbit in 12 animals weighing 3-4 kg, and the course of the hypoglycemia was followed for 6 hours.

[1] = after subcutaneous administration; cited from earlier work

Substance | Potency relative to insulin, % (mouse) [%] | Glucose in percent of initial, 1 h (fasted rabbits; Zn++ 80 μg/ml) | Glucose in percent of initial, 2 h (fasted rabbits; Zn++ 80 μg/ml) | Glucose in percent of initial, 4 h (fasted rabbits; Zn++ 80 μg/ml) | Glucose in percent of initial, 6 h (fasted rabbits; Zn++ 80 μg/ml) | also measured
Gln^A4 insulin | 79 |  |  |  |  | 
Gln^A17,Thr^B30 --NH2 human insulin [Gln^A17,Thr^B30 --NH2 insulin] | 67 | 65% of initial | 63% of initial | 68% of initial | 83% of initial | 
Lys^B27,Thr^B30 --NH2 human insulin [Lys^B27,Thr^B30 --NH2 insulin] | 82 |  |  |  |  | Glucose in percent of initial, 1 h (fasted rabbits; Zn++ […]): 56% of initial; Glucose in percent of initial, 2 h (fasted rabbits; Zn++ […]): 55% of initial; Glucose in percent of initial, 4 h (fasted rabbits; Zn++ […]): 62% of initial; Glucose in percent of initial, 6 h (fasted rabbits; Zn++ […]): 61% of initial
Gln^B13,Arg^B27 human insulin [Gln^B13,Arg^B27 insulin] | 78 | 55% of initial | 46% of initial | 61% of initial | 91% of initial | 
Arg^B27,Lys^B30 --NH2 human insulin [Arg^B27,Lys^B30 --NH2 insulin] | 84 | 85% of initial | 83% of initial | 81% of initial | 79% of initial | Glucose in percent of initial, 1 h (fasted rabbits; Zn++ 10.9 μg/ml): 78% of initial; Glucose in percent of initial, 2 h (fasted rabbits; Zn++ 10.9 μg/ml): 73% of initial; Glucose in percent of initial, 4 h (fasted rabbits; Zn++ 10.9 μg/ml): 69% of initial; Glucose in percent of initial, 6 h (fasted rabbits; Zn++ 10.9 μg/ml): 67% of initial
Gln^A17,Arg^B27human insulin [Gln^A17,Arg^B27 insulin] | 69 | 53% of initial | 47% of initial | 50% of initial | 66% of initial | 
Gln^B13,Thr^B30 --NH2 human insulin [Gln^B13,Thr^B30 --NH2 insulin] |  |  |  |  |  | Glucose in percent of initial, 1 h (fasted rabbits; Zn++ […]): 91% of initial; Glucose in percent of initial, 2 h (fasted rabbits; Zn++ […]): 92% of initial; Glucose in percent of initial, 4 h (fasted rabbits; Zn++ […]): 92% of initial; Glucose in percent of initial, 6 h (fasted rabbits; Zn++ […]): 90% of initial
Arg^B27 human insulin [Arg^B27 insulin] | 87 | 45% of initial | 34% of initial | 51% of initial | 91% of initial | 
Gln^A17,Gln^B13,Thr^B30 --NH2 human insulin [Gln^A17,Gln^B13,Thr^B30 --NH2 insulin] | 49 |  |  |  |  | 
Lys^B27,Lys^B30 --NH2 human insulin [Lys^B27,Lys^B30 --NH2 insulin] | 56 |  |  |  |  | Glucose in percent of initial, 1 h (fasted rabbits; Zn++ 9.5 μg/ml): 72% of initial; Glucose in percent of initial, 2 h (fasted rabbits; Zn++ 9.5 μg/ml): 65% of initial; Glucose in percent of initial, 4 h (fasted rabbits; Zn++ 9.5 μg/ml): 65% of initial; Glucose in percent of initial, 6 h (fasted rabbits; Zn++ 9.5 μg/ml): 60% of initial
Arg^B27,Thr^B30 --NH2 human insulin [Arg^B27,Thr^B30 --NH2 insulin] | 92 | 88% of initial | 86% of initial | 85% of initial | 81% of initial | Prolongation of action (fasted rabbits; 3 zinc atoms per hexamer, 8 μg zinc/ml): very prolonged action; Glucose in percent of initial, 1 h (fasted rabbits; Zn++ […]): 62% of initial; Glucose in percent of initial, 2 h (fasted rabbits; Zn++ […]): 64% of initial; Glucose in percent of initial, 4 h (fasted rabbits; Zn++ […]): 66% of initial; Glucose in percent of initial, 6 h (fasted rabbits; Zn++ […]): 67% of initial
Gln^A17,Lys^B30 --NH2 human insulin [Gln^A17,Lys^B30 --NH2 insulin] | 62 | 60% of initial | 56% of initial | 73% of initial | 86% of initial | 
A1,B29-di-Boc substituted insulin |  |  |  |  |  | Prolonged insulin action [1]: too slightly prolonged action to be clinically useful
Gln^A17,Arg^B27,Thr^B30 --NH2 human insulin [Gln^A17,Arg^B27,Thr^B30 --NH2 insulin] | 71 |  |  |  |  | 
Gln^B13,Gln^A17 human insulin [Gln^A17,Gln^B13 insulin] | 50 | 53% of initial | 47% of initial | 55% of initial | 82% of initial | 
Lys^B30 --NH2 insulin |  | 74% of initial | 83% of initial | 80% of initial | 82% of initial | Prolongation of action (fasted rabbits; 30 zinc per hexamer, 80 μg zinc/ml): moderate prolongation of action
Lys^B27 human insulin [Lys^B27 insulin] | 88 | 47% of initial | 40% of initial | 55% of initial | 93% of initial | 
Gln^B21 insulin | 96 |  |  |  |  | 
Gln^B13,Arg^B27,Thr^B30 --NH2 human insulin [Gln^B13,Arg^B27,Thr^B30 --NH2 insulin] | 62 |  |  |  |  | 
